Assay results reported in PubChem BioAssay (NCI).
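These data come from cells grown in 96-well plates and exposed to compound for 48 hours at five concentrations. TGI marks complete inhibition of growth.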

Tests used:
Test in all cases: inhibition of tumour cell growth, NCI panel, 48 h
A549 NSCLC = test system: A549 NSCLC
ACHN renal = test system: ACHN renal
CAKI-1 renal = test system: CAKI-1 renal
COLO 205 colon = test system: COLO 205 colon
EKVX NSCLC = test system: EKVX NSCLC
HCT-15 colon = test system: HCT-15 colon
HL-60(TB) leukemia = test system: HL-60(TB) leukemia
HOP-18 NSCLC = test system: HOP-18 NSCLC
HOP-62 NSCLC = test system: HOP-62 NSCLC
HOP-92 NSCLC = test system: HOP-92 NSCLC
IGROV1 ovarian = test system: IGROV1 ovarian
LOX IMVI melanoma = test system: LOX IMVI melanoma
M14 melanoma = test system: M14 melanoma
NCI-H460 lung = test system: NCI-H460 lung
OVCAR-4 ovarian = test system: OVCAR-4 ovarian
OVCAR-5 ovarian = test system: OVCAR-5 ovarian
SK-OV-3 ovarian = test system: SK-OV-3 ovarian
UO-31 renal = test system: UO-31 renal
NCI-H226 lung = test system: NCI-H226 lung

Structure (SMILES) | TGI (A549 NSCLC) [µM] | TGI (ACHN renal) [µM] | TGI (CAKI-1 renal) [µM] | TGI (COLO 205 colon) [µM] | TGI (EKVX NSCLC) [µM] | TGI (HCT-15 colon) [µM] | TGI (HL-60(TB) leukemia) [µM] | TGI (HOP-18 NSCLC) [µM] | TGI (HOP-62 NSCLC) [µM] | TGI (HOP-92 NSCLC) [µM] | TGI (IGROV1 ovarian) [µM] | TGI (LOX IMVI melanoma) [µM] | TGI (M14 melanoma) [µM] | TGI (NCI-H460 lung) [µM] | TGI (OVCAR-4 ovarian) [µM] | TGI (OVCAR-5 ovarian) [µM] | TGI (SK-OV-3 ovarian) [µM] | TGI (UO-31 renal) [µM] | TGI (NCI-H226 lung) [µM]
CC(C)=CC1C[C@H](C2CC=C3C2(C)CCC2[C@@]3(C)C(=O)CC3[C@]2(C)C=CC(=O)[C@]3(C)CO)CO1 (stereo partly drawn) | 52.4 | 30.7 | 49 | 27.2 | 55.1 | 40.5 | 9.42 | 30.1 | 30.6 | 41.3 | 29.5 | 9.45 | 12.1 | 25.4 | 41.3 | 37.8 | 39.6 | 33.1 | –
Cc1c2ccncc2c(C)c2c1[nH]c1ccc(OC(C)C)cc12 | 3.1 | 2.56 | 2.96 | 2.81 | 2.81 | 2.74 | 4.46 | 2.93 | 2.66 | 3.22 | 2.79 | 2.51 | 2.96 | 2.25 | 3.14 | 2.87 | 2.77 | 2.89 | 3.05
O=c1cc(-c2ccccc2)c2ccccc2[nH]1 | > 100 | > 100 | 90.2 | > 100 | – | > 100 | > 100 | > 100 | > 100 | 48.1 | > 100 | > 100 | > 100 | > 100 | > 100 | > 100 | 84.8 | 55.9 | 99.8
[N-]=[N+]=NC(CCl)c1cn([C@H]2C[C@H](O)[C@@H](CO)O2)c(=O)[nH]c1=O (stereo partly drawn) | > 100 | > 100 | > 100 | > 100 | > 100 | > 100 | > 100 | > 100 | > 100 | > 100 | > 100 | > 100 | > 100 | > 100 | – | > 100 | > 100 | > 100 | > 100
